Columns and labels:
Type in all cases: in vivo
[1] = test system: IFN-γ; experiment: IFN-γ levels in sera upon i.v. glycolipid administration to C57BL/6 mice (ELISA); parameters: IFN-γ levels, test 1 / IFN-γ levels, test 2 / IFN-γ levels, average / IFN-γ levels, Total / IFN-γ (B6): unit not given here
In short: (§1)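 Female C57BL/6 or BALB/c mice (5–6 weeks old) received 1 μg glycolipid i.v. in PBS. Sera were collected at 0, 2, 6, 12, 24, 48 and 72 h post-dose. Cytokine levels were quantified by sandwich ELISA on 1:10-diluted sera, with A450 read against known standards.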

[2] = test system: IL-12; experiment: IL-12 levels in sera upon i.v. glycolipid administration to C57BL/6 mice (ELISA); parameters: IL-12 levels, test 1 / IL-12 levels, test 2 / IL-12 levels, average / IL-12 levels, Total: unit not given here
In short: as §1

[3] = test system: IL-12; experiment: IL-12 levels in sera upon i.v. glycolipid administration to BALB/c mice (ELISA); parameters: IL-12 levels, test 1 / IL-12 levels, test 2 / IL-12 levels, average / IL-12 levels, Total: unit not given here
In short: as §1

[4] = test system: IFN-γ; experiment: IFN-γ levels in sera upon i.v. glycolipid administration to BALB/c mice (ELISA); parameters: IFN-γ levels, test 1 / IFN-γ levels, test 2 / IFN-γ levels, average / IFN-γ levels, Total: unit not given here
In short: as §1

[5] = C57BL/6, ratio calculated from Tables 1-6
[6] = C57BL/6, serum, total over hours 0-72

In the case of `CCCCCCCCCCCCCC[C@@H](O)[C@@H](O)[C@H](CC[C@H]1O[C@H](CO)[C@H](O)[C@H](O)[C@H]1O)NC(=O)CCCCCCCCCCCCCCCCCCCOCCCCC` [A-5], the “IFN-γ/IL-4 (B6)” value [1, 5] was 18, the “IFN-γ levels, average” value ([1]; C57BL/6, serum, hour 0) was 31 and the “IFN-γ levels, test 1” value ([1]; C57BL/6, serum, hour 0) was 31. For the same molecule, the “IFN-γ levels, test 2” value ([1]; C57BL/6, serum, hour 0) was 31, the “IFN-γ levels, average” value ([1]; C57BL/6, serum, hour 2) was 112.5 and the “IFN-γ levels, test 1” value ([1]; C57BL/6, serum, hour 2) was 130. The “IFN-γ levels, test 2” value ([1]; C57BL/6, serum, hour 2) was 95, the “IFN-γ levels, average” value ([1]; C57BL/6, serum, hour 6) was 929 and the “IFN-γ levels, test 1” value ([1]; C57BL/6, serum, hour 6) was 930. For the same molecule, the “IFN-γ levels, test 2” value ([1]; C57BL/6, serum, hour 6) was 928, the “IFN-γ levels, average” value ([1]; C57BL/6, serum, hour 12) was 2108 and the “IFN-γ levels, test 1” value ([1]; C57BL/6, serum, hour 12) was 2215. For the same molecule, the “IFN-γ levels, test 2” value ([1]; C57BL/6, serum, hour 12) was 2001, the “IFN-γ levels, average” value ([1]; C57BL/6, serum, hour 24) was 8196.5 and the “IFN-γ levels, test 1” value ([1]; C57BL/6, serum, hour 24) was 7680. The “IFN-γ levels, test 2” value ([1]; C57BL/6, serum, hour 24) was 8713, the “IFN-γ levels, average” value ([1]; C57BL/6, serum, hour 48) was 295 and the “IFN-γ levels, test 1” value ([1]; C57BL/6, serum, hour 48) was 249. For the same molecule, the “IFN-γ levels, test 2” value ([1]; C57BL/6, serum, hour 48) was 341, the “IFN-γ levels, average” value ([1]; C57BL/6, serum, hour 72) was 102 and the “IFN-γ levels, test 1” value ([1]; C57BL/6, serum, hour 72) was 101. For the same molecule, the “IFN-γ levels, test 2” value ([1]; C57BL/6, serum, hour 72) was 103, the “IFN-γ levels, Total” value [1, 6] was 11775 and the “IL-12/IL-4 (B6)” value [2, 5] was 3.4. For the same molecule, the “IL-12 levels, average” value ([2]; C57BL/6, serum, hour 0) was 5, the “IL-12 levels, test 1” value ([2]; C57BL/6, serum, hour 0) was 5 and the “IL-12 levels, test 2” value ([2]; C57BL/6, serum, hour 0) was 5. The “IL-12 levels, average” value ([2]; C57BL/6, serum, hour 2) was 115.5, the “IL-12 levels, test 1” value ([2]; C57BL/6, serum, hour 2) was 117 and the “IL-12 levels, test 2” value ([2]; C57BL/6, serum, hour 2) was 114. The “IL-12 levels, average” value ([2]; C57BL/6, serum, hour 6) was 1346.5, the “IL-12 levels, test 1” value ([2]; C57BL/6, serum, hour 6) was 1351 and the “IL-12 levels, test 2” value ([2]; C57BL/6, serum, hour 6) was 1342. The “IL-12 levels, average” value ([2]; C57BL/6, serum, hour 12) was 518.5, the “IL-12 levels, test 1” value ([2]; C57BL/6, serum, hour 12) was 535 and the “IL-12 levels, test 2” value ([2]; C57BL/6, serum, hour 12) was 502. The “IL-12 levels, average” value ([2]; C57BL/6, serum, hour 24) was 87, the “IL-12 levels, test 1” value ([2]; C57BL/6, serum, hour 24) was 96 and the “IL-12 levels, test 2” value ([2]; C57BL/6, serum, hour 24) was 78. The “IL-12 levels, average” value ([2]; C57BL/6, serum, hour 48) was 58, the “IL-12 levels, test 1” value ([2]; C57BL/6, serum, hour 48) was 52 and the “IL-12 levels, test 2” value ([2]; C57BL/6, serum, hour 48) was 64. The “IL-12 levels, average” value ([2]; C57BL/6, serum, hour 72) was 49.5, the “IL-12 levels, test 1” value ([2]; C57BL/6, serum, hour 72) was 46 and the “IL-12 levels, test 2” value ([2]; C57BL/6, serum, hour 72) was 53. For the same molecule, the “IL-12 levels, Total” value [2, 6] was 2182, the “IL-12/IL-4 (BALB/c)” value ([3]; ratio calculated from Tables 1-6) was 13 and the “IL-12 levels, average” value ([3]; serum, hour 0) was 5. For the same molecule, the “IL-12 levels, test 1” value ([3]; serum, hour 0) was 5, the “IL-12 levels, test 2” value ([3]; serum, hour 0) was 5 and the “IL-12 levels, average” value ([3]; serum, hour 2) was 153.5. For the same molecule, the “IL-12 levels, test 1” value ([3]; serum, hour 2) was 74, the “IL-12 levels, test 2” value ([3]; serum, hour 2) was 233 and the “IL-12 levels, average” value ([3]; serum, hour 6) was 1668. For the same molecule, the “IL-12 levels, test 1” value ([3]; serum, hour 6) was 1587, the “IL-12 levels, test 2” value ([3]; serum, hour 6) was 1749 and the “IL-12 levels, average” value ([3]; serum, hour 12) was 2806.5. The “IL-12 levels, test 1” value ([3]; serum, hour 12) was 2246, the “IL-12 levels, test 2” value ([3]; serum, hour 12) was 3367 and the “IL-12 levels, average” value ([3]; serum, hour 24) was 141. For the same molecule, the “IL-12 levels, test 1” value ([3]; serum, hour 24) was 110, the “IL-12 levels, test 2” value ([3]; serum, hour 24) was 172 and the “IL-12 levels, average” value ([3]; serum, hour 48) was 97. The “IL-12 levels, test 1” value ([3]; serum, hour 48) was 0, the “IL-12 levels, test 2” value ([3]; serum, hour 48) was 194 and the “IL-12 levels, average” value ([3]; serum, hour 72) was 76.5. For the same molecule, the “IL-12 levels, test 1” value ([3]; serum, hour 72) was 153, the “IL-12 levels, test 2” value ([3]; serum, hour 72) was 0 and the “IL-12 levels, Total” value ([3]; serum, total over hours 0-72) was 4949. The “IFN-γ/IL-4 (BALB/c)” value ([4]; BALB/c, ratio calculated from Tables 1-6) was 39, the “IFN-γ levels, average” value ([4]; BALB/c, serum, hour 0) was 2.5 and the “IFN-γ levels, test 1” value ([4]; BALB/c, serum, hour 0) was 27. The “IFN-γ levels, test 2” value ([4]; BALB/c, serum, hour 0) was 27, the “IFN-γ levels, average” value ([4]; BALB/c, serum, hour 2) was 101 and the “IFN-γ levels, test 1” value ([4]; BALB/c, serum, hour 2) was 118. For the same molecule, the “IFN-γ levels, test 2” value ([4]; BALB/c, serum, hour 2) was 84, the “IFN-γ levels, average” value ([4]; BALB/c, serum, hour 6) was 1665 and the “IFN-γ levels, test 1” value ([4]; BALB/c, serum, hour 6) was 1650. The “IFN-γ levels, test 2” value ([4]; BALB/c, serum, hour 6) was 1680, the “IFN-γ levels, average” value ([4]; BALB/c, serum, hour 12) was 3566 and the “IFN-γ levels, test 1” value ([4]; BALB/c, serum, hour 12) was 4018. For the same molecule, the “IFN-γ levels, test 2” value ([4]; BALB/c, serum, hour 12) was 3114, the “IFN-γ levels, average” value ([4]; BALB/c, serum, hour 24) was 9104.5 and the “IFN-γ levels, test 1” value ([4]; BALB/c, serum, hour 24) was 8738. For the same molecule, the “IFN-γ levels, test 2” value ([4]; BALB/c, serum, hour 24) was 9471, the “IFN-γ levels, average” value ([4]; BALB/c, serum, hour 48) was 425.5 and the “IFN-γ levels, test 1” value ([4]; BALB/c, serum, hour 48) was 453. For the same molecule, the “IFN-γ levels, test 2” value ([4]; BALB/c, serum, hour 48) was 398, the “IFN-γ levels, average” value ([4]; BALB/c, serum, hour 72) was 56 and the “IFN-γ levels, test 1” value ([4]; BALB/c, serum, hour 72) was 54. The “IFN-γ levels, test 2” value ([4]; BALB/c, serum, hour 72) was 58, the “IFN-γ levels, Total” value ([4]; BALB/c, serum, total over hours 0-72) was 14922 and the “effect: higher/extended IFN-γ and IL-12 with much lower IL-4 compared to α-GalCer (KRN)” value ([4]; C57BL/6 and BALB/c mice, 1 μg i.v.) was “particularly pronounced”.

From patent US8883745B2, “C—glycolipids with enhanced Th-1 profile” (New York University, priority 2006, dated 2014)
